Article PMC6062138, “2,4-Diaminothieno[3,2-d]pyrimidines, a new class of anthelmintic with activity against adult and egg stages of whipworm” (PLoS Neglected Tropical Diseases, 2018)
Where two headings read alike, the source gives them in different places.

Key:
T. trichiura = conditions: cited from earlier work; for Cure rate, T. trichiura infection: single dose; for Cure rate against whipworm: single doses as used in MDA, no reference given
ex vivo T. muris adults [1] = conditions: read-out: EC50 T. muris paralysis assay; cited from earlier work
C. elegans N2 [2] = test system: C. elegans N2; parameters: method as in PMID 29223747; conditions: read-out: EC50 C. elegans growth assay; cited from earlier work
C. elegans N2 [3] = assay: C. elegans growth assay; parameters: species or system Caenorhabditis elegans; conditions: synchronised L1, 5 days at 20°C, EC50 estimate ± standard error
Description: A mixed-stage C. elegans N2 population was obtained by liquid culture (20°C) according to standard methods. It was then bleached to obtain an egg population with 1.5 mL 4M NaOH, 2.4 mL NaOCl, 2.1 mL water, washed three times, and allowed to hatch in 50 mL S-basal buffer at 20°C overnight to obtain a synchronised L1 population. For the growth assay, 49 μL of S-complete buffer and 1 μL of DMSO or DMSO plus compound were added to each well of 96-well plates. 50 μL of a worm suspension (approximately 20 synchronised L1 worms, 1% w/v E. coli HB101 in S-complete buffer) were then added to each well. Plates were incubated at 20°C before imaging 5 days later. Worm movement was stimulated by inserting and removing a 96-well PCR plate into/from the wells of the assay plate, and then whole plate 200 frame movies were recorded at 30 frames per second. Growth was quantified as a correlate of movement using the same automated system described earlier, which estimates movement for each well by categorising pixels as imaging movement if their variance is greater the mean plus one standard deviation of the variances of all the pixels on the plate.

[4] = test system: unembryonated T. muris eggs; assay: Embryonation assay; parameters: species or system Trichuris muris; conditions: for Percentage of unembryonated eggs compared to the DMSO control: duration of embryonation (56–60 days)
Description: One hundred unembryonated eggs were treated with water, 1% v/v DMSO in water or test compounds at a final concentration of 100 μM (unless stated) with 1% v/v DMSO, in the dark at 26°C, either for 56 days or for shorter periods as described. Images were collected on an Olympus BX63 upright microscope using a 60x / 1.42 PlanApo N (Oil) objective and captured and white-balanced using an DP80 camera (Olympus) in monochrome mode through CellSens Dimension v1.16 (Olympus). Images were then processed and analysed using the image analysis platform Fiji.

[5] = test system: CMT-93 rectal epithelial cells; assay: WST-8 cytotoxicity assay; type: cell-based; conditions: Mus musculus, CMT93; CMT-93 cells, 72 hours, max 100 μM, n = 8, 95% confidence interval in parentheses
Description: (§1) The mouse rectal epithelial cell line CMT-93 (LGC Promochem, Teddington, United Kingdom) was used for these studies. The WST-8 and neutral red cytotoxicity assays were performed as described. Briefly, cells were cultured with test compounds, chlorpromazine positive control or DMSO alone (final compound concentrations of 0 to 100 μM) for 72 hours. The WST-8 assay was then carried out using the Cell Counting Kit– 8 (Sigma Aldrich # 96992) with an incubation time of 2 hours. This time was chosen according to the manufacturer’s instructions and was such that the absorbance of the WST-8 formazan dye was within the linear range of the microplate reader. Following this assay, the medium was exchanged, and the ability of the cells to take up the dye neutral red (concentration 33 μg/mL, incubation time 2 hours) was determined using a microplate reader (absorbance at 540 nm). Results were analysed using GraphPad Prism and fitted using a log-logistic model.

ex vivo T. muris adults [6] = assay: T. muris ex vivo adult motility (paralysis) assay; parameters: species or system Trichuris muris; conditions: for EC50: Trichuris muris; for Activity in hit confirmation and expansion motility screen: library material (DMSO solution), 100μM
Description: T. muris worms were cultured using severe combined immune deficiency (SCID) mice, at the Biological Services Facility at the University of Manchester. Male and female mice were infected with 200 infective embryonated T. muris eggs via oral gavage. Thirty-five days later, the mice were sacrificed. Adult T. muris were obtained from the intestine as previously described. Worms were maintained in Roswell Park Memorial Institute (RPMI) 1640 media supplemented with penicillin (500 U/mL) and streptomycin (500 μg/mL) at approximately 37°C and studied on the same day.
Individual adult worms were added to wells containing 75 μL of RPMI-1640 medium, penicillin (500 U/mL), streptomycin (500 μg/mL) plus 1% v/v final concentration of dimethylsulfoxide (DMSO) or compound dissolved in DMSO. Plates were incubated at 37°C, 5% CO2. Motility was determined after 24 hours.
An automated system was used to quantify worm movement. An earlier version of this system has been previously described. Two hundred frame movies of the whole plate were recorded at 10 frames per second and then motility determined by an algorithm based on thresholding pixel variance over time. For the hit confirmation and expansion assays, library material was used at a final concentration of 100μM. Dose-response curves were calculated with the four factor log-logistic model using the R package drc or using GraphPad Prism.

[7] = test system: CMT-93 rectal epithelial cells; assay: Neutral red cytotoxicity assay; type: cell-based; conditions: Mus musculus, CMT93; CMT-93 cells, 72 hours, max 100 μM, n = 8, 95% confidence interval in parentheses
Description: as §1

[8] = test system: embryonated T. muris eggs; assay: In vivo hatching and infection establishment of treated eggs in SCID mice; parameters: species or system Trichuris muris in SCID mice; conditions: eggs soaked 14 days in 100 μM; SCID mice given 40 eggs; L2 larvae counted day 15 post infection; batch normalised to DMSO
Description: (§2) 100 infective embryonated eggs were incubated in deionised water with 1% v/v DMSO or test compounds at a final concentration of 100 μM in 1% v/v DMSO for 14 days at room temperature in the dark. Eggs were then washed and resuspended in deionised water. For in vitro hatching assays 100 eggs were added to 1 mL of E. coli bacterial culture grown in LB broth overnight at 37°C shaking at 200 rpm. Egg-bacterial cultures were incubated for 24 hours at 37°C, 5% CO2 and hatching determined following blinding by visual examination under a dissecting microscope. For in vivo hatching assays, 40 eggs were counted under a dissecting microscope and given to a SCID mouse in 200 μL water. At day 15 post-infection mice were culled and the number of L2 larvae present in the caecae and colon enumerated in a blinded manner under a dissecting microscope.
The experiment was conducted in two ‘experimental batches’. For batch one there were 5 mice in each of the DMSO and OX02926 groups. For batch two there were 9 mice in each of the DMSO and OX02926 groups. The raw data (number of worms that established infection in each mouse) are shown separated by batch and treatment in the S1 Fig.
To analyse the data we used a two-way ANOVA (worm number ~ treatment * batch). […] There was no significant interaction between treatment and batch [F(1,24) = 0.296, P = 0.59153]. […]

[9] = test system: embryonated T. muris eggs; assay: In vitro hatching of compound-soaked embryonated eggs in E. coli culture; parameters: species or system Trichuris muris; conditions: eggs soaked 14 days at 100 μM, then 24 hours in E. coli culture at 37°C
Description: as §2

[10] = parameters: method as in PMID 25370471, PMID 26787751; conditions: solid tumors; cited from earlier work
[11] = shown for comparison in Table 1, read-out: Adult Trichuris paralysis assay EC50

EC50 (C. elegans N2 [3]; Caenorhabditis elegans, 120 h) | EC50 (ex vivo T. muris adults [6]; [11]) | Structure (SMILES) | EC50 (ex vivo T. muris adults [1]) | EC50 [5] | Activity in hit confirmation and expansion motility screen (ex vivo T. muris adults [6]) | EC50 [7] | other results
– | – | CCCSc1ccc2nc(NC(=O)OC)[nH]c2c1 [Albendazole] | > 800 µM | – | – | – | Cure rate, T. trichiura infection (T. trichiura): 28%; Cure rate against whipworm (T. trichiura): less than 40%
– | – | c1ccc([C@H]2CN3CCSC3=N2)cc1 [Levamisole] | 8 ± 3 µM | – | – | – | EC50 (C. elegans N2 [2]): 5 ± 1 µM
– | – | COC(=O)Nc1nc2ccc(C(=O)c3ccccc3)cc2[nH]1 [Mebendazole] | > 600 µM | – | – | – | Cure rate, T. trichiura infection (T. trichiura): 36%; Cure rate against whipworm (T. trichiura): less than 40%; EC50 (C. elegans N2 [2]): 1.1 ± 0.2 µM
82 ± 9 µM | 47 µM | CNc1nc(NCCOc2ccccc2)c2sccc2n1 [OX02925, N^2-Methyl-N^4-(2-phenoxyethyl)thieno[3,2-d]pyrimidine-2,4-diamine] | – | 75 µM | active | 29 µM | Percentage of unembryonated eggs compared to the DMSO control ([4]; 100 μM, 26°C): significant increase
82 ± 37 µM | 27 µM | COCCNc1nc(NCCOc2ccccc2Cl)c2sccc2n1 [OX02926, N^4-(2-(2-Chlorophenoxy)ethyl)-N^2-(2-methoxyethyl)thieno[3,2-d]pyrimidine-2,4-diamine] | – | 43 µM | confirmed this activity | 21 µM | EC50 (C. elegans N2 [3]): 87 ± 37 µM; melting point: 69 to 97 °C; Reduction of the burden of worms in vivo [8]: ~40%; In vitro hatching of treated embryonated eggs compared to DMSO control [9]: significant decrease; EC50 (ex vivo T. muris adults [6]; equivalent of 27μM, read-out: EC50 adult whipworm motility assay, mass equivalent): 10.2 µg/mL
– | – | Cc1ccc(CN2C(=O)COCc3cc(-c4ccncc4)ccc32)cc1 [OX02983] | 50 ± 13 µM | – | – | – | –
7 ± 1 µM | > 80 µM | COc1ccccc1CNc1nc(NCCOc2ccccc2Cl)c2sccc2n1 [OX03143, N^4-(2-(2-chlorophenoxy)ethyl)-N^2-(2-methoxybenzyl)thieno[3,2-d]pyrimidine-2,4-diamine] | – | 15 µM | active | 5 µM | –
11 ± 2 µM | 44 µM | CNc1nc(NCCOc2ccccc2Cl)c2sccc2n1 [OX03147, N^4-(2-(2-chlorophenoxy)ethyl)-N^2-methylthieno[3,2-d]pyrimidine-2,4-diamine] | – | 37 µM | active | 21 µM | Larval length after shortened exposure ([4]; 100 μM, 26°C, 2–4 week and 4–6 week groups): not affected; Percentage of unembryonated eggs compared to the DMSO control ([4]; 100 μM, 26°C): significant increase; Larval length after shortened exposure ([4]; 100 μM, 26°C, soaking weeks 0–3, P = 0.0076 vs DMSO): clear larval stunting; Proportion of unembryonated eggs after shortened exposure ([4]; 100 μM, 26°C, weeks 0–2, 0–3, 2–4 or 4–6 of embryonation): no increase; Morphology of L1 larvae within the egg after shortened exposure ([4]; 100 μM, 26°C, weeks 0–3, 2–4 or 4–6): clear morphological alterations; Drug dose at which increased number of unembryonated eggs was detected ([4]; concentration response, both 26°C and room temperature, 56 days): 100 µM; Effect on egg morphology / larval length at low concentration ([4]; concentrations as low as 1 μM, 26°C, 56 days): significant larval stunting
– | – | CS(=O)(=O)N1CCN(Cc2cc3nc(-c4cccc5[nH]ncc45)nc(N4CCOCC4)c3s2)CC1 [Pictilisib, pictilisib] | – | – | – | – | Tolerability in Phase I trials [10]: tolerated
– | – | Cc1c(CN2CCN(C(=O)[C@H](C)O)CC2)sc2c(N3CCOCC3)nc(-c3cnc(N)nc3)nc12 [apitolisib] | – | – | – | – | Tolerability in Phase I trials [10]: tolerated
